Values after ≈ are worked out from the molar mass of the structure shown. Like-named read-outs stand apart in the source and are kept apart here.
Key:
[1] = tested on: Hep G2 (liver) cells; test: Mammalian cell toxicity, Promega CellTiter 96, liver cells; assay type: cell-based; conditions: 24 h
Procedure: (§1) Cytotoxicity was determined using non-cancerous Vero cells (kidney-african green monkey) and liver cells (Hep-2G) in accordance with Promega CellTiter 96 Non-Radioactive Cell Proliferation Assay (cat # G4000). Compounds were diluted in media and all assays were done in triplicate. Average values are presented, with ±SD. Cells were incubated in the presence of the compounds for 24 h at 37° C. and 5% CO2. Tetrazolium dye solution was added to each well and allowed to incubate for 1-4 h. Solubilization/Stop solution was added and allowed to sit at room temperature for 1 h. Formazan product was scored spectrophotometrically with an automatic plate reader set at 570 nm. Positive control wells for cell death were briefly treated with 0.1% saponin, immediately prior to the addition of dye solution. Wells containing 1% DMSO and no drug were used as a negative control and the average absorbance at 570 nm were set to 100%. The percent of cells viable were calculated as a ratio between the average absorption at 570 nm of the drug containing wells/average absorption at 570 nm of the control (no drug). Ratios were multiplied by 100 to give the values as a percentage as expressed on the y-axis.
(§2) Cytotoxicity studies were performed in accordance with Promega CellTiter 96 Non-RadioactivCell Proliferation Assay (cat #G4000). All cytotoxicity studies used a negative control (wells of either kidney or liver cells containing 1% DMSO but lacking the analog), a positive control (wells of either kidney or liver cells treated with the known cytotoxic agent, saponin) and the serial dilutions of the novel analogs. All control (negative) wells were normalized to 100% viable cells to accurately show the percentage of either liver or kidney cells that remained alive and viable following either overnight incubation with the analogs or 5-minute treatment with 0.1% saponin.

[2] = tested on: Candida albicans ATCC Accession No. 10231; test: Checkerboard synergy assay with fluconazole; assay type: cell-based; conditions: for FIC Fluc: average FIC of fluconazole at varying concentrations of the test drug; for FIC Test: average FIC of the test drug at varying concentrations of fluconazole; for Activity (interaction with fluconazole): from FIC index; for FIC Index: sum of the two FICs, <1 synergistic, >=1 antagonistic
Procedure: Considering that two different modes of activity (cidal and static) were observed depending on the structural motifs present in our analogs, we performed a series of checkerboard assays to determine if representative active compounds were in fact acting in synergy with the azole, fluconazole. Each of these assays tested multiple concentrations of the selected analog in the presence of multiple concentrations of fluconazole. All checkerboard assays were prepared in 96-well plates. 200 μl of previously prepared drug solutions were added to each well in column 2. Using a multichannel pipette, 100 μl from each well in column 2 was serially diluted (1:2) horizontally across the plate, stopping at column 10. Contents of each well were mixed thoroughly. Column 11 was reserved for fluconazole MIC control and contained no other drug. 100 μl of media was added to each well, column 2-10. Each well was mixed thoroughly with a multichannel pipette. 100 μl was then removed and discarded from these wells. 100 μl of previously prepared fluconazole dilution was added to each well in row B. Using a multichannel pipette, 100 μl from each well was serially diluted (1:2) vertically down the plate, stopping at row F. Contents of each well were mixed thoroughly. Row G was reserved for tested drug MIC control and contained no fluconazole. Well G11 contained neither drug and served as a drug-free growth control. The final 100 μl from each well in row F was discarded.
The fungal samples were prepared from glycerol stocks of Candida albicans ATCC Accession No. 10231. The inoculum's concentration was adjusted to a McFarland standard between 0.08 and 0.12. Inoculum was then diluted at a ratio of 1:37.5 in buffered media. 100 μl of inoculum-media solution was added to each well. Following inoculation, the 96-well plates were wrapped in parafilm to prevent evaporation and incubated for overnight at 35° C. After 18 h, the wells showing growth were recorded.
Synergistic activity was determined based on the MIC read from these plates. The fractional inhibitory concentration (FIC) for a given well is the ratio of the minimum inhibitory concentration of one drug A in the presence another drug B to the minimum inhibitory concentration with only drug A. The FIC was calculated for the test drug in each of the wells along the growth/no-growth interface at varying concentrations of fluconazole, then these values were averaged to determine the average FIC for the test drug. The same process was used to calculate the average FIC for fluconazole at varying concentrations of the test drug. The sum of these two FICs gives the FIC index which can be used to determine the synergistic effect between the two drugs (Hsieh et al., Diagn. Microbiol. Infect. Dis. (1993) 16: 343-349). An FIC index value less than 1 indicated synergistic interactions between the two drugs while an FIC index value greater than or equal to 1 indicated antagonistic interactions.

[3] = tested on: Candida glabrata (ATCC Accession No. 48435); test: MIC80 fungal growth inhibition, C. glabrata ATCC 48435; assay type: cell-based; conditions: for MIC80: Nakaseomyces glabratus
In short: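 Broth microdilution per CLSI M27-A3 in HEPES-buffered RPMI-1640, against C. albicans ATCC 10231, C. glabrata ATCC 48435 and azole-susceptible (TW1) and azole-resistant (TW17) clinical isolates from one AIDS patient. MIC80 read visually as lowest concentration inhibiting >80% growth versus 1% DMSO controls.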

[4] = tested on: Vero (kidney) cells; test: Mammalian cell toxicity, Promega CellTiter 96, kidney cells; assay type: cell-based; conditions: 24 h
Procedure: as §1, §2

[5] = tested on: Candida spp.; test: MIC studies, statements pooled over several isolates; assay type: cell-based, Candida albicans, Candida glabrata; conditions: for antifungal activity (in words): overall over the isolates tested
Procedure: The antifungal activity of the pyridinohydrazide and hydrazomethylpyridine derivatives described in the s were evaluated in vitro using Candida albicans (ATCC Accession No. 10231) and Candida glabrata (ATCC Accession No. 48435). In addition, the compounds were evaluated for activity against two previously-described clinical isolates of C. albicans known to have developed azole-resistance. These isolates were obtained over a two year period from a single AIDS patient and the development of the azole-resistance mechanisms have been extensively characterized (White T C. Antimicrob. Agents Chemother. (1997) 41: 1482-1487). MIC assays were performed on the clinical isolates 1 and 17 (annotated TW1 and TW17, respectively), where isolate 1 was used as an azole-susceptible control and isolate 17 was considered azole-resistant. All assays were done in accordance with NCCLS reference documents (Clinical Laboratory and Standards Institute. Reference method for Broth Dilution Antifungal Susceptibility Testing of Yeasts: Approved Standard. M27-A3 2010; 28). The results of these screenings are summarized in Tables 1-9 (Examples 20-27) as the minimum concentrations that inhibited more than 80% of fungal growth (MIC80) as compared to positive controls containing 1% DMSO. Assays were performed in HEPES-buffered RPMI-1640 media. All MIC screens used a visual scoring method as opposed to spectroscopic analysis, due to the altered absorbance spectra of many of the compounds.

[6] = ATCC48435, Azole-resistant, >80% growth inhibition, visual scoring, read-out: MIC80 C. glabrata ATCC No. 48435

Row | Structure (SMILES) | cell toxicity ([1]; 5× MIC) | FIC Fluc [2] | FIC Test [2] | Activity (interaction with fluconazole) [2] | FIC Index [2] | MIC80 [3, 6] [µg/mL] | cell toxicity ([4]; 5 times the MIC) | activity against azole-resistant isolates (in words) ([5]; azole-resistant isolates) | cell toxicity ([1]; 100× MIC) | cell toxicity ([1]; through 10× MIC) | MIC80 ([3]; ATCC48435, read-out: MIC80 C. glabrata ATCC No. 48435) [µg/mL] | antifungal activity (in words) [5] | cell toxicity ([4]; 100× MIC) | cell toxicity ([4]; through 10× MIC) | MIC80 C. glabrata ATCC No. 48435 ([3]; Azole-resistant, >80% growth inhibition, visual scoring) [µg/mL]
1 | O=C(N/N=C/c1cc(Br)ccc1O)c1ccc[n+]([O-])c1 [AR27] | cytotoxic | 0.92 | 1.00 | Antagonistic | 1.92 | 4 (≈ 11.9 µM) | cytotoxic |  |  |  |  |  |  |  | 
2 | O=C(NN=Cc1cc([N+](=O)[O-])ccc1O)c1cccnc1 [AR12] |  | 1.00 | 1.00 | Antagonistic | 2.00 |  | elevated toxicity | less active |  |  |  |  |  |  | 
3 | C(=N\Nc1ccccc1)/c1ccncc1 [AR48] |  | 3.87 | 0.80 | Antagonistic | 4.67 |  |  |  | toxic | no cell toxicity | 4 (≈ 20.3 µM) | moderate antifungal activity | toxic | no cell toxicity | 
4 | C(=N\Nc1ccccc1)/c1cccnc1 [AR44] |  | 1.00 | 0.90 | Antagonistic | 1.90 | 16 (≈ 81.1 µM) |  |  | toxic | no cell toxicity |  | moderate antifungal activity | toxic | no cell toxicity | 
5 | O=C(NN=Cc1cc([N+](=O)[O-])ccc1O)c1ccncc1 [AR18] |  | 1.00 | 1.00 | Antagonistic | 2.00 |  |  |  | minimal cytotoxicity | not toxic |  | most potent | minimal cytotoxicity | not toxic | 31 (≈ 108 µM)
6 | Cc1ccc(O)c(/C=N/NC(=O)c2ccccn2)c1 [AR2, (E)-N′-(2-Hydroxy-5-methylbenzylidene)picolinohydrazide] |  | 1.00 | 1.00 | Antagonistic | 2.00 | 2 (≈ 7.83 µM) |  |  | minimal toxicity |  |  |  | minimal toxicity |  | 

From patent US20180072675A1, “ANTIMICROBIAL PYRIDINOHYDRAZIDE AND HYDRAZOMETHYLPYRIDINE-BASED AGENTS” (Board of Supervisors of Louisiana State University and …, priority 2015, published 2018)
